From paper PMC11524583, “Neurons enhance blood–brain barrier function via upregulating claudin-5 and VE-cadherin expression due to glial cell line-derived neurotrophic factor secretion” (eLife, 2024)
“And” between values parts separate entries of the source, which are not always exact repeats. Identical values can stand only once. Like-named read-outs stand apart in the source and are kept apart here.

Tests used:
[1] = In vitro BBB permeability study (Papp), double co-culture with U251 cells (h+U); assay type: in vitro ADME, Homo sapiens; details: human, group h+U, Figure 1D/1E
[2] = test system: double co-culture BBB model (hCMEC/D3 and U251 cells); test: as above; assay type: in vitro ADME, Homo sapiens; details: group h+U, Figure 1D/1E; single biological replicate; listed as NaF
[3] = In vitro BBB permeability study (Papp), double co-culture with SH-SY5Y cells (h+S); assay type: in vitro ADME, Homo sapiens; details: human, group h+S, Figure 1D/1E
[4] = test system: double co-culture BBB model (hCMEC/D3 and SH-SY5Y cells); test: as above; assay type: in vitro ADME, Homo sapiens; details: group h+S, Figure 1D/1E; single biological replicate; listed as NaF
[5] = Permeability (Papp) across U251 mono-culture model; assay type: in vitro ADME, Homo sapiens; details: human, group U251 mono-culture, Figure 1F
U251 cells monolayer = test: Permeability (Papp) across U251 mono-culture model; assay type: in vitro ADME, Homo sapiens; details: group U251 mono-culture, Figure 1F; single replicate
[6] = Permeability (Papp) across the blank inserts; assay type: in vitro ADME; details: blank inserts (no cells), Figure 1F; for Papp at 30 min: not told
Experimental: Therefore, the subsequent experiments were all completed on day 6. The culture medium was removed from the apical and basolateral sides of the inserts and washed twice with preheated Hank’s balanced salt solution (HBSS). Fresh HBSS was then added to both the apical and basolateral chambers. […] Next, 200 μl aliquots were collected from the basolateral chamber after 30 min of incubation at 37°C. The concentrations of the tested agents in the basolateral chamber were measured.
The apparent permeability coefficient (Papp, cm/s) values of the tested agents across the in vitro BBB model were calculated using the equation ([Tavelin et al., 2002]):(1) Papp=(Q/1800)/(S×C0)
where S is the surface area of the insert membrane (0.33 cm^2 for 6.5 mm inserts, 4.46 cm^2 for 24 mm inserts), Q is the transported amount of the tested agents transported from the donor chamber to the receiver chamber for 30 min (1800 s), and C0 is the initial concentration of the tested agents in the donor chamber.

[7] = In vitro BBB permeability study (Papp), triple co-culture BBB model; details: human
[8] = test system: triple co-culture BBB model (hCMEC/D3, U251 and SH-SY5Y cells); test: as above
[9] = In vitro BBB permeability study (Papp), hCMEC/D3 mono-culture BBB model; details: human
[10] = test system: hCMEC/D3 mono-culture BBB model; test: as above
[11] = BBB permeability in brain-specific Gdnf knockdown mice (brain distribution of fluorescein and FITC-Dex); details: Gdnf silencing (shGdnf) vs shNC mice; i.v., 30 min
[12] = mean of four replicates, read-out: Papp Mean
[13] = single biological replicate, read-out: Papp
[14] = single replicate, read-out: Papp

Structure (SMILES): O=C1OC2(c3ccc(O)cc3Oc3cc(O)ccc32)c2ccccc21 [fluorescein, fluorescein sodium]
- Papp A→B at 30 min [1, 12]: 29.1 ×10⁻⁶ cm/s
- Papp A→B at 30 min [1, 13]: 28.2 ×10⁻⁶ cm/s
- Papp A→B [2]: 30.2 ×10⁻⁶ cm/s and 29.6 ×10⁻⁶ cm/s and 28.1 ×10⁻⁶ cm/s
- Papp A→B at 30 min [3, 12]: 27.8 ×10⁻⁶ cm/s
- Papp A→B at 30 min [3, 13]: 29.4 ×10⁻⁶ cm/s
- Papp A→B [4]: 29.1 ×10⁻⁶ cm/s and 23.2 ×10⁻⁶ cm/s and 29.5 ×10⁻⁶ cm/s
- Papp A→B at 30 min [5, 12]: 30.6 ×10⁻⁶ cm/s
- Papp A→B at 30 min [5, 14]: 29.5 ×10⁻⁶ cm/s
- Papp A→B (U251 cells monolayer): 30.6 ×10⁻⁶ cm/s and 31.9 ×10⁻⁶ cm/s and 30.2 ×10⁻⁶ cm/s
- Papp ([6]; single replicate): 7.271e-05 cm/s and 7.214e-05 cm/s and 7.259e-05 cm/s
- Papp at 30 min [6, 12]: 71.6 ×10⁻⁶ cm/s
- Papp at 30 min [6, 14]: 68.7 ×10⁻⁶ cm/s
- Papp A→B at 30 min ([7]; Papp Mean, Triple group, mean of 4, Figure 2R): 25 ×10⁻⁶ cm/s
- Papp A→B at 30 min ([7]; Papp Mean, Triple group, mean of 4, Figure 2T): 20.5 ×10⁻⁶ cm/s
- Papp A→B at 30 min ([7]; Papp Mean, Triple+PP2 group, mean of 4, Figure 2T): 27.5 ×10⁻⁶ cm/s
- Papp A→B at 30 min ([7]; Papp Mean, Triple+SPP group, mean of 4, Figure 2R): 30 ×10⁻⁶ cm/s
- Papp A→B at 30 min ([7]; Papp Mean, group h+S+U, Figure 1D/1E, mean of four replicates): 24.9 ×10⁻⁶ cm/s
- Papp A→B at 30 min ([7]; Papp(cm/s), group h+S+U, Figure 1D/1E, single biological replicate): 26.1 ×10⁻⁶ cm/s
- Papp A→B at 30 min ([7]; Papp, Triple group, single replicates, Figure 2R): 25.3 ×10⁻⁶ cm/s
- Papp A→B at 30 min ([7]; Papp, Triple group, single replicates, Figure 2T): 21.5 ×10⁻⁶ cm/s
- Papp A→B at 30 min ([7]; Papp, Triple+PP2 group, single replicates, Figure 2T): 28.2 ×10⁻⁶ cm/s
- Papp A→B at 30 min ([7]; Papp, Triple+SPP group, single replicates, Figure 2R): 30.6 ×10⁻⁶ cm/s
- Papp A→B ([8]; read-out: Papp(cm/s), group h+S+U, Figure 1D/1E, single biological replicate, listed as NaF): 26.4 ×10⁻⁶ cm/s and 23.5 ×10⁻⁶ cm/s and 23.6 ×10⁻⁶ cm/s
- Papp A→B ([8]; read-out: Papp, Triple group, single replicates, Figure 2R): 24.7 ×10⁻⁶ cm/s and 24.9 ×10⁻⁶ cm/s and 25 ×10⁻⁶ cm/s
- Papp A→B ([8]; read-out: Papp, Triple group, single replicates, Figure 2T): 20.2 ×10⁻⁶ cm/s and 20.5 ×10⁻⁶ cm/s and 19.8 ×10⁻⁶ cm/s
- Papp A→B ([8]; read-out: Papp, Triple+PP2 group, single replicates, Figure 2T): 26.4 ×10⁻⁶ cm/s
- Papp A→B ([8]; read-out: Papp, Triple+SPP group, single replicates, Figure 2R): 29.1 ×10⁻⁶ cm/s and 30.2 ×10⁻⁶ cm/s
- Papp A→B at 30 min ([9]; Papp Mean, Mono group, mean of 4, Figure 2R): 31.8 ×10⁻⁶ cm/s
- Papp A→B at 30 min ([9]; Papp Mean, Mono group, mean of 4, Figure 2T): 30.4 ×10⁻⁶ cm/s
- Papp A→B at 30 min ([9]; Papp Mean, group h, Figure 1D/1E, mean of four replicates): 32.2 ×10⁻⁶ cm/s
- Papp A→B at 30 min ([9]; Papp Mean, group hCEMC/D3 mono-culture, Figure 1F, mean of four replicates): 35.7 ×10⁻⁶ cm/s
- Papp A→B at 30 min ([9]; Papp(cm/s) Mean, Figure 2N, group GDNF+SPP, group mean): 24.5 ×10⁻⁶ cm/s
- Papp A→B at 30 min ([9]; Papp(cm/s) Mean, Figure 2N, group GDNF, group mean): 19 ×10⁻⁶ cm/s
- Papp A→B at 30 min ([9]; Papp(cm/s) Mean, Figure 2N, group Mono, group mean): 23.8 ×10⁻⁶ cm/s
- Papp A→B at 30 min ([9]; Papp(cm/s) Mean, Figure 2P, group GDNF+PP2, group mean): 28.2 ×10⁻⁶ cm/s
- Papp A→B at 30 min ([9]; Papp(cm/s) Mean, Figure 2P, group GDNF, group mean): 23.5 ×10⁻⁶ cm/s
- Papp A→B at 30 min ([9]; Papp(cm/s) Mean, Figure 2P, group Mono, group mean): 30.8 ×10⁻⁶ cm/s
- Papp A→B at 30 min ([9]; Papp(cm/s), Figure 2N, group GDNF+SPP, individual replicates): 26.5 ×10⁻⁶ cm/s
- Papp A→B at 30 min ([9]; Papp(cm/s), Figure 2N, group GDNF, individual replicates): 19.4 ×10⁻⁶ cm/s
- Papp A→B at 30 min ([9]; Papp(cm/s), Figure 2N, group Mono, individual replicates): 21.9 ×10⁻⁶ cm/s
- Papp A→B at 30 min ([9]; Papp(cm/s), Figure 2P, group GDNF+PP2, individual replicates): 27.5 ×10⁻⁶ cm/s
- Papp A→B at 30 min ([9]; Papp(cm/s), Figure 2P, group GDNF, individual replicates): 23.6 ×10⁻⁶ cm/s
- Papp A→B at 30 min ([9]; Papp(cm/s), Figure 2P, group Mono, individual replicates): 31 ×10⁻⁶ cm/s
- Papp A→B at 30 min ([9]; Papp(cm/s), group h, Figure 1D/1E, single biological replicate): 31.7 ×10⁻⁶ cm/s
- Papp A→B at 30 min ([9]; Papp(cm/s), group hCEMC/D3 mono-culture, Figure 1F, single replicate): 36.2 ×10⁻⁶ cm/s
- Papp A→B at 30 min ([9]; Papp, Mono group, single replicates, Figure 2R): 30.7 ×10⁻⁶ cm/s
- Papp A→B at 30 min ([9]; Papp, Mono group, single replicates, Figure 2T): 30.8 ×10⁻⁶ cm/s
- Papp A→B ([10]; read-out: Papp(cm/s), Figure 2N, group GDNF+SPP, individual replicates): 22 ×10⁻⁶ cm/s and 26.7 ×10⁻⁶ cm/s
- Papp A→B ([10]; read-out: Papp(cm/s), Figure 2N, group GDNF, individual replicates): 17.7 ×10⁻⁶ cm/s and 20.6 ×10⁻⁶ cm/s and 18.3 ×10⁻⁶ cm/s
- Papp A→B ([10]; read-out: Papp(cm/s), Figure 2N, group Mono, individual replicates): 24.3 ×10⁻⁶ cm/s and 25.1 ×10⁻⁶ cm/s and 23.7 ×10⁻⁶ cm/s
- Papp A→B ([10]; read-out: Papp(cm/s), Figure 2P, group GDNF+PP2, individual replicates): 28.3 ×10⁻⁶ cm/s
- Papp A→B ([10]; read-out: Papp(cm/s), Figure 2P, group GDNF, individual replicates): 23.3 ×10⁻⁶ cm/s (2×) and 23.8 ×10⁻⁶ cm/s
- Papp A→B ([10]; read-out: Papp(cm/s), Figure 2P, group Mono, individual replicates): 30.5 ×10⁻⁶ cm/s and 31.5 ×10⁻⁶ cm/s and 30.3 ×10⁻⁶ cm/s
- Papp A→B ([10]; read-out: Papp(cm/s), group h, Figure 1D/1E, single biological replicate, listed as NaF): 32 ×10⁻⁶ cm/s and 32.7 ×10⁻⁶ cm/s and 32.5 ×10⁻⁶ cm/s
- Papp A→B ([10]; read-out: Papp(cm/s), group hCEMC/D3 mono-culture, Figure 1F, single replicate): 35.9 ×10⁻⁶ cm/s and 34.8 ×10⁻⁶ cm/s and 36 ×10⁻⁶ cm/s
- Papp A→B ([10]; read-out: Papp, Mono group, single replicates, Figure 2R): 31.7 ×10⁻⁶ cm/s and 33.3 ×10⁻⁶ cm/s and 31.4 ×10⁻⁶ cm/s
- Papp A→B ([10]; read-out: Papp, Mono group, single replicates, Figure 2T): 29.5 ×10⁻⁶ cm/s and 30.3 ×10⁻⁶ cm/s
- brain-to-plasma concentration ratios [11]: notable increases
